Source: the NIST ThermoML archive (doi:10.1021/je0341357)
± gives the expanded uncertainty stated by the source.

Conditions: Liquid; Visual observation in an unstirred cell

| Critical temperature [K] | Compound |
| --- | --- |
| 510.2 ± 1.4 | CC/C=C\CC [(Z)-3-hexene] |
| 630.8 ± 0.9 | CCCC1CCCCC1 [1-cyclohexylpropane] |
| 509 ± 0.7 | C/C=C/CCC [(E)-2-hexene] |
| 477.4 ± 0.9 | C=CC(C)(C)C [3,3-dimethyl-1-butene] |
| 606.9 ± 0.4 | CCC1CCCCC1 [ethylcyclohexane] |
| 521 ± 0.4 | C=C(C)CCC [2-methyl-1-pentene] |
| 598 ± 2.1 | CCCCCC(C)N (centres undefined) [1-methylhexylamine] |
| 632.2 ± 0.4 | CC(C)C1CCCCC1 [(1-methylethyl)cyclohexane] |
| 566.3 ± 1.1 | CCC/C=C/CCC [(E)-4-octene] |
| 642.1 ± 0.6 | CC(C)CC1CCCCC1 [2-methylpropylcyclohexane] |
| 592 ± 1 | CCCCCCNC [1-hexanamine, N-methyl-] |
| 496.3 ± 0.7 | C/C=C\C(C)C [(Z)-4-methyl-2-pentene] |
| 513.4 ± 0.9 | C/C=C\CCC [(Z)-2-hexene] |
| 647.5 ± 0.4 | C1CCCCCCC1 [cyclooctane] |
| 567.5 ± 0.9 | C=C(C)CCCCC [2-methyl-1-heptene] |
| 533.6 ± 4.3 | C=C(C)C(C)CC (centres undefined) [2,3-dimethyl-1-pentene] |
| 497.7 ± 0.9 | C=C(C)C(C)C [2,3-dimethyl-1-butene] |
| 626.8 ± 0.9 | NC1CCCCC1 [cyclohexylamine] |
| 568.9 ± 1.1 | CCCCC=C(C)C [2-methyl-2-heptene] |
| 509.3 ± 0.5 | CCC=C(C)C [2-methyl-2-pentene] |

| Critical temperature [K] | Compound |
| --- | --- |
| 521 ± 0.9 | CC(C)=C(C)C [2,3-dimethyl-2-butene] |
| 528.7 ± 0.4 | C=CCCC(C)C [5-methyl-1-hexene] |
| 499.2 ± 0.4 | CCCN [propan-1-amine] |
| 569.8 ± 0.4 | C/C=C/CCCCC [(E)-2-octene] |
| 472.5 ± 0.4 | CC(C)N [2-propanamine] |
| 516 ± 4 | C=CCC(C)(C)C [4,4-dimethyl-1-pentene] |
| 653.1 ± 0.4 | CCCCC1CCCCC1 [butylcyclohexane] |
| 548.5 ± 0.6 | C/C=C\CCCC [2-heptene, (Z)-] |
| 538.6 ± 0.7 | CC/C=C/CCC [3-heptene, (E)-] |
| 507.4 ± 2 | CC/C=C/CC [(E)-3-hexene] |
| 592.3 ± 0.7 | CCCCCCN [1-hexanamine] |
| 553.6 ± 1.1 | C1CCCCC1 [cyclohexane] |
| 467 ± 0.5 | C=C(C)CC [2-methyl-1-butene] |
| 541.8 ± 1.1 | C=C(C)CCCC [2-methyl-1-hexene] |
| 607.5 ± 1.1 | CCCCNCCCC [dibutylamine] |
| 652 ± 0.4 | CC(C)(C)C1CCCCC1 [1,1-dimethylethylcyclohexane] |
| 493.1 ± 0.5 | C=CCC(C)C [4-methyl-1-pentene] |
| 542.8 ± 0.4 | C/C=C/CCCC [2-heptene, (E)-] |
| 555.8 ± 1.1 | CCCNCCC [dipropylamine] |
